This is an account of results in patent US8815887B2, “Prophylactic or therapeutic method for Sjogren's syndrome” (Takeda Pharmaceutical Company Limited, priority 2012, dated 2014).

Type in all cases: in vivo
A short description of data set [1]: Time-course changes in plasma concentration in Sjogren's syndrome animal model. The settings on record: NOD mouse, oral twice per day 50 and 250 mg/kg, repeated for 19 weeks. As to the method:
The compound was orally administered twice per day to 8-week-old NOD mouse under the following conditions, and administration was repeated for 19 weeks.
To the plasma (5 μL) collected from the NOD mouse were added a solvent solution (dimethyl sulfoxide/acetonitrile (2:8), 5 μL), and compound A solution (compound A dissolved in solvent solution, 5 μL) or compound B solution (compound B dissolved in solvent solution, 5 μL) for drawing an analytical curve. An internal standard substance (acetonitrile (115 μL) containing a deuterated form of compound A, or diclofenac sodium, 100 ng/mL)) was added, and the mixture was vigorously stirred. The mixture was centrifuged at 5250 rpm. To the supernatant (30 μL) was added a dilution solvent (60 μL) to give a sample solution (mobile phase A:mobile phase B=9:1 (v/v) was used as a dilution solvent).
The above-mentioned sample solution was injected into an HPLC-MS/MS analysis apparatus, and the obtained peak area was converted to concentration from the analytical curve. The detail of the analysis apparatus is shown below.

In data set [2] the test system is NOD/ShiLtJ mouse. The data set is described as follows: Saliva secretion amount by pilocarpine stimulation in Sjogren's syndrome animal model. The text has this:
As an animal model for Sjogren's syndrome, most widely used NOD/ShiLtJ mouse (hereinafter sometimes referred to as NOD mouse) was selected since it meets the both conditions of the diagnosis standard: 1) development of dry eye and dry mouth, 2) increase of anti-SS-A/Ro and anti-SS-B/La antibody titer, and is easily available (Tegan N. Lavoie et. al., Journal of Biomedicine and Biotechnology Volume 2011 (2011), Article ID 549107, pp 1-14). 6-Week-old NOD mice were purchased from The Jackson Laboratory (US), after acclimatization for 1-2 weeks, animals before onset of diabetes were divided into 3 groups (maximum 30 mice per group) by randomization into each of the groups based on the body weight measured before the start of the test drug administration and the data of saliva secretion amount by pilocarpine stimulation under ketamine•xylazine anesthesia and subjected to the test. During the test drug treatment, the body weight and the blood glucose level were monitored at least once a week. The blood glucose level of several μL of the blood collected from the tail vein under 1-5% isoflurane anesthesia was measured by a blood glucose level measuring instrument (Accu-Chek Aviva Nano, Roche diagnostics K.K.). The diabetes diagnosis criteria was not less than 250 mg/dL, and one insulin pellet (LinBit, LinShin Canada, Inc.) was subcutaneously transplanted under 1-5% isoflurane anesthesia into the abdomen of the mouse that developed diabetes, and the blood glucose was controlled during the study by monitoring the blood glucose level, and adding or removing the pellet as necessary.
Compound A was orally administered twice daily (minimum ic dosing interval 6 hours) every day except Saturdays and Sundays. The dose of compound A was 50 mg/kg or 250 mg/kg, and 0.2 mL was orally administered as a single dose. The concentration of compound A was appropriately controlled by calculating an average body weight of the group once a week from the body weights of the NOD mice, and adjusting the concentration such that the administration of 0.2 mL results in the administration of each dose. On the other hand, the vehicle group without administration of compound A was orally administered with 0.2 mL of 0.5% methylcellulose solution in the same schedule as above.
Under anesthesia by intraperitoneal administration of a mixture (10 mL/kg) of ketamine (100 mg/kg) and xylazine (10 mg/kg), the saliva secreted in 15 min after subcutaneous administration of pilocarpine (5 mg/kg) was collected with defatted cotton, and the secretion amount was calculated from the defatted cotton weight before and after the measurement.
This measurement was performed twice when the mice reached 21-week-old and 26-week-old.
(§1) The saliva secretion amount in 23-week-old NOD mice administered with compound A or compound B was measured in the same manner as in Experimental Example 2.

Data set [3] has as its system CD4+ T cells in the salivary gland. Nature of the data set: CD4 mRNA level (CD4+ T cells) in salivary gland tissue, normalized to β-actin. The settings on record: 26-week-old NOD mouse, compound A treatment group (50 and 250 mg/kg). The text has this:
(§2) The salivary gland of the 26-week-old NOD mice used in Experimental Example 2 for the measurement of the saliva secretion amount was removed, the total RNA was recovered from there, and the mRNA levels of CD4, CD8 and CCR9 were normalize with the β-actin expression level as the internal standard.

Data set [4] concerns anti-SS-B/La antibody. Nature of the data set: Anti-SS-B/La IgG ELISA of blood of Sjogren's syndrome animal model. The settings on record: 26-week-old NOD mouse, 50 and 250 mg/kg. As to the method:
Blood samples from the 26-week-old NOD mice used in Experimental Example 2 for the measurement of the saliva secretion amount were collected, and ELISA test was carried out for two subsets of anti-SS-A/Ro and anti-SS-B/La found commonly in Sjogren's syndrome. […]
antigen: SS-B (RayBiotech, Inc., MD-27-0019P) plate: Immuno 96 Microwell Plate (Nunc, 442404) washing: 0.1% Tween 20 containing PBS (hereinafter sometimes to be referred to as PBS/T) substrate: One tablet of o-phenylenediamine dihydrochloride (OPD) (Sigma, P-4809) was dissolved in 50 mM citric acid-phosphoric acid buffer pH 5.0 (Sigma, P-4809) (10 mL), and 4 μL aqueous hydrogen peroxide was added.
SS-A and SS-B were each diluted with 50 mM carbonate buffer pH 9.6 (Sigma, C-3041) to 0.5 μg/mL and 1.0 μg/mL, respectively, and the antigen was added to an ELISA plate at 50 μL/well. After incubation at 4° C. overnight, the plate was washed 3 times with PBS/T, added with 2% BSA in PBS at 200 μL/well, and incubated at room temperature for 1 hr. After washing once with PBS/T, the serum diluted with PBS/T (100- to 500-fold) was added at 50 μL/well, and the mixture was incubated at room temperature for 1-2 hr. […]
(ELISA stands for enzyme-linked immunosorbent assay.)

Data set [5] has as its system CD8+ T cells in the salivary gland. Nature of the data set: CD8 mRNA level (CD8+ T cells) in salivary gland tissue, normalized to β-actin. The settings on record: 26-week-old NOD mouse.
Excerpt: as §2

For data set [6], the system named is NOD/ShiLtJ mouse. The data set is described as follows: Tolerability in the long-term efficacy study (Experimental Example 3). The settings on record: relatively long term, same dose range (50 and 250 mg/kg). As to the method:
as §1

Data set [7] has as its system anti-SS-A/Ro antibody. Nature of the data set: Anti-SS-A/Ro Ig ELISA of blood of Sjogren's syndrome animal model. The settings on record: 26-week-old NOD mouse; for onset frequency (positive anti-SS-A/Ro, antibody titer not less than 30 Unit): vehicle 100% onset. As to the method:
Blood samples from the 26-week-old NOD mice used in Experimental Example 2 for the measurement of the saliva secretion amount were collected, and ELISA test was carried out for two subsets of anti-SS-A/Ro and anti-SS-B/La found commonly in Sjogren's syndrome.
For quantification of the Total Anti-SSA Ig (IgG+IgA+IgM) in the serum, commercially available Mouse Anti-SSA Total Ig ELISA Kit Cat. No. 5710 (manufactured by ALPHA DIAGNOSTIC INTERNATIONAL) was used. The standard protocol was partly modified. A mouse serum sample was diluted 1/10-fold, the serum of C57BL/6 mouse was added to anti-SSA calibrator solution (Calibrator solution) to give 10% serum.

The subject of data set [8] is CCR9. Nature of the data set: CCR9 mRNA expression level in salivary gland tissue, normalized to β-actin. The settings on record: 26-week-old NOD mouse, 50 and 250 mg/kg.
Excerpt: as §2

[9] abbreviates: 23-week-old NOD mouse, 50 mg/kg.

As to `CC(C)(C)c1ccc(S(=O)(=O)Nc2ccc(Cl)cc2C(=O)c2cc[n+]([O-])cc2)cc1` [compound B, N-{4-chloro-2-[(1-oxidopyridin-4-yl)carbonyl]phenyl}-4-(tert-butyl)benzenesulfonamide], in data set [1], the “AUC relative to compound A” value was “about one-tenth that of compound A” and the “metabolism / accumulation in the body” value is “rapidly metabolized without accumulation in the body”. Moreover, the “saliva secretion amount compared to the vehicle group” value in data set [2] (setting [9]) was “significantly higher”. The “dose-dependent effect on saliva secretion amount” value in data set [2] (23-week-old NOD mouse, 50 and 250 mg/kg) is given as “the dose-dependent effect was not found”.

`CC(C)Oc1ccc(S(=O)(=O)Nc2ccc(Cl)cc2C(=O)c2cc[n+]([O-])cc2)cc1` [compound A, N-{4-chloro-2-[(1-oxidopyridin-4-yl)carbonyl]phenyl}-4-(propan-2-yloxy)benzenesulfonamide]: the “amount of CD4+ T cells in the salivary gland as compared to the vehicle group” value in data set [3] is “decreased to about half”. In addition, the “anti-SS-B/La antibody titer in blood” value in data set [4] is listed as “decreased in a dose-dependent manner”. Moreover, the results for the “amount of CD8+ T cells in the salivary gland as compared to the vehicle group” value in data set [5] (50 mg/kg) and in data set [5] (250 mg/kg) were “decreased to about half” and “about one-third”, respectively. The tolerability entry in data set [6] is listed as “clearly superior with compound A to compound B”. In data set [1], the blood exposure entry is recorded as “good blood exposure”. In addition, the “metabolism / accumulation in the body” value in data set [1] is “rapidly metabolized without accumulation in the body”. The “onset frequency (positive anti-SS-A/Ro, antibody titer not less than 30 Unit)” value in data set [7] (50 mg/kg) is given as “about 50%”; in data set [7] (250 mg/kg), “about 30%”. In data set [7] (250 mg/kg, control C57BL/6 mouse), the “share of treatment group with anti-SS-A/Ro antibody suppressed to the control level” value is “about 70%”. For the same molecule, the “anti-SS-A/Ro antibody titer in blood” value in data set [7] (50 and 250 mg/kg) is “decreased in a dose-dependent manner”. The saliva secretion amount result in data set [2] (21-week-old NOD mouse, 50 mg/kg orally twice daily from 8-week-old, vehicle about 8.3) is “about 9.8 mg/15 min/g BW”; in data set [2] (21-week-old NOD mouse, 250 mg/kg orally twice daily from 8-week-old, vehicle about 8.3) it was “about 11.2 mg/15 min/g BW”; in data set [2] (26-week-old NOD mouse, 50 mg/kg orally twice daily from 8-week-old, vehicle about 4.0), “about 5.5 mg/15 min/g BW”; in data set [2] (26-week-old NOD mouse, 250 mg/kg orally twice daily from 8-week-old, vehicle about 4.0) it was “about 8.0 mg/15 min/g BW”. Moreover, the “saliva secretion amount compared to the vehicle group” value in data set [2] (setting [9]) is on record as “significantly suppressed a decrease in the saliva secretion amount”; in data set [2] (23-week-old NOD mouse, 250 mg/kg), “significantly suppressed a decrease in the saliva secretion amount”. Besides, in data set [2] (26-week-old NOD mouse, 250 mg/kg), the “increase of saliva secretion amount than the vehicle group” value is on record as “two-fold increase”. In addition, in data set [2] (NOD mouse, 50 and 250 mg/kg, 21- and 26-week-old), the “effect on decrease in saliva secretion amount (dose dependence)” value is recorded as “significantly suppressed a decrease in the saliva secretion amount in a dose-dependent manner”. The “mRNA expression level of CCR9 in the salivary gland as compared to the vehicle group” value in data set [8] is “tended to decrease in a dose-dependent manner”.
